Laboratory results from patent publication US7179616B1, “Method for detecting phosphatidylserine on the surface of cells” (University of Notre Dame du Lac, priority 2002, dated 2007).
Entries after “also recorded” stand apart in the source; their conditions may differ.

How the values were obtained:
apoptotic cells [1] = conditions: cited from earlier work
POPC:POPS vesicles = experiment: Vesicle fluorescence titration of PSS-380, POPC:POPS vesicles; type: binding; conditions: HEPES 10 mM
Method: (§1) Unilamellar vesicles were prepared by initial hydration of a dried lipid film followed by repeated extrusion through polycarbonate membranes having a pore size of 100 nm. Aliquots of vesicle suspension were added to a solution of PSS-380 (1 μM, 3 mL) in HEPES buffer (10 mM) at pH 7.2. The fluorescence emission intensity at 440 nm (ex 380 nm) was measured 15 seconds after the addition of each aliquot.

[2] = tested on: POPC:POPG (50:50) vesicles; experiment: Vesicle fluorescence titration of PSS-380, POPC:POPG vesicles; type: binding; conditions: 50:50, PSS-380 1 μM, HEPES 10 mM, pH 7.2, ex 380, em 440 nm
Method: as §1

[3] = tested on: POPC:POPA (50:50) vesicles; experiment: Vesicle fluorescence titration of PSS-380, POPC:POPA vesicles; type: binding; conditions: 50:50, PSS-380 1 μM, HEPES 10 mM, pH 7.2, ex 380, em 440 nm
Method: as §1

100% POPC vesicles = experiment: Vesicle fluorescence titration of PSS-380, zwitterionic POPC vesicles; type: binding
Method: as §1

[4] = tested on: vesicle membranes containing anionic phospholipids (phosphatidylserine, phosphatidylglycerol, phosphatidic acid); experiment: Fluorescence response to vesicle membranes containing anionic phospholipids; type: binding; conditions: more than a few percent of phosphatidylserine, phosphatidylglycerol or phosphatidic acid
Method: as §1

[5] = Fluorescence titration with monodispersed phospholipids; type: binding; conditions: DHPC:DHPS (1:1) titration, micromolar concentrations
From the text: (§2) Although the fluorescence emission of PSS-380 increases in the presence of vesicles containing PS, it is unchanged if the PS is monodispersed. […] Titration of PSS-380 with increasing amounts of a DHPC:DHPS (1:1) mixture results in no change in fluorescence intensity. Further evidence that PSS-380 has a weak affinity for DHPS and DHPC in water was gained from ^31P NMR titration experiments. The ^31P signals for phospholipid head groups hardly move upon addition of PSS-380. This is in line with previous studies with PSS-380 showing that it has low affinity for neutral or mono-anionic molecules in water, Ojida, A., Mito-Oka, Y., Inoue, M. A. & Hamachi, I. (2002) J. Am. Chem. Soc., 124, 6256–6258, the entire contents and disclosure of which is hereby incorporated by reference.

[6] = 31P NMR titration with DHPS and DHPC in water; type: binding
From the text: as §2

erythrocytes = experiment: Erythrocyte studies, normal versus scrambled erythrocytes; type: cell-based, human; conditions: PSS-380 1 μM, 5 mM TES, 150 mM NaCl, pH 7.4, 4×10^9 erythrocytes
Method: Aliquots (10 μL) containing 4.0×10^9 of normal or “scrambled” erythrocytes were added to a solution of PSS-380 (1 μM, 3 mL) in 5 mM TES, 150 mM NaCl, pH 7.4. The erythrocytes were prepared in the following way. Fresh human blood was collected in ice-cold phosphate-buffered-saline (PBS) containing 10 U/mL of heparin. The samples were centrifuged and the supernatant and the top 10% of the erythrocytes were removed. The wash was repeated two more times. An equal volume of PBS was added to the remaining pellet. The desired number of cells was removed, centrifuged and the supernatant discarded. Four volumes of lysis buffer (0.1×PBS containing 0.1 mM EGTA, 1 mM MgCl2, and 1% BSA, plus 1 mM CaCl2 for “scrambled” erythrocytes only) were added to the pellet. The suspensions were vortexed and the lysed cells were placed on ice. After 2 minutes, the cells were resealed by adding 0.4 volumes (relative to the size of the original pellet) of 10×PBS. The tubes were gently inverted and warmed to 37° C. After 30 minutes, 100 volumes of PBS were added, then the cells were centrifuged into pellets, washed three times, and resuspended in TES buffer for use.

Jurkat cells [7] = experiment: Single-well bulk fluorescence assay for apoptosis; type: cell-based; conditions: apoptosis induced by camptothecin
Method: The ability of PSS-380 to detect cell apoptosis was also examined in the present invention. This was approached in three ways. First, it was assessed whether PSS-380 could be used in a single-well, bulk fluorescence assay for apoptosis. […] Thus, cell apoptosis may be detected qualitatively using PSS-380 in a simple, single-well, bulk fluorecence assay.

apoptotic cells [8] = experiment: Cell staining and fluorescence microscopy of apoptotic cells; type: cell-based
Method: Jurkat E6-1 cells were grown in RPMI 1640 growth media supplemented with 10% fetal bovine serum. MCF-7 cells were grown in DMEM growth media with 10% fetal bovine serum. […] Suspended cells (Jurkat) were grown to a density of 1×10^6 cells/mL. Before staining with annexin V-FITC, the growth media was changed to a binding buffer containing 5 mM TES/145 mM NaCl, 2.5 mM CaCl2, at pH 7.4. The cells were incubated with annexin V-FITC (10 μL of Pharmingen stock solution per mL cell suspension), 7AAD (5 μL of 50 μg/mL stock solution per mL cell suspension), and PSS-380 (20 μL of 1 mM stock solution per mL cell suspension) for 15 minutes at 37° C. The incubation mixture was aspirated and changed to a buffer containing 5 mM TES, 145 mM NaCl, pH 7.4. At this point, the Jurkat cell suspensions were added to 16-well chamber-slides. Cells were observed directly on an Axiovert S100 TV microscope (Carl Zeiss) equipped with filter sets DAPI/Hoechst/[…]/Bodipy/Fluo3/DiO, Cy3 (Chroma). Pictures were taken using a black and white digital camera and colored afterwards using Photoshop 6.0 software package (Adobe). Fluorescence microscopy was also used to evaluate if PSS-380 could identify sub-populations of live, apoptotic, and dead cells. Cell apoptosis was induced by treatment with camptothecin, or the calcium ionophore A23187. The drug-treated cells and untreated control cells were subsequently stained with a mixture of annexin V-FITC (green), PSS-380 (blue) and 7AAD (red). FIGS. 5, 6 and 7 display typical microscopic images produced using this method. Live cells are not stained by any of the dyes; whereas, staining by 7AAD identifies dead cells with permeable membranes. Cells that are only stained by annexin V-FITC or PSS-380 are defined as apoptotic. The microscopic images show a slight statistical variation in cell staining, due in part to the fact that PSS-380 and annexin V-FITC are competing for the same cell surface binding sites. If the staining experiments are repeated using either annexin V or PSS-380 alone, the emission from positive cells is more homogeneous and with similar intensity.

Jurkat cells [9] = experiment: Toxicity of PSS-380, flow cytometry with PI; type: cell-based; conditions: 100 μM, one hour
Method: Tests were performed to establish the toxicity of PSS-380.

[10] = in water; cited from earlier work
[11] = tested on: membranes that are rich in PS; conditions: cited from earlier work

In the case of `CCCCN1C(=O)C(=C/C=C/C=C2\Oc3ccccc3N2CCCS(=O)(=O)[O-])C(=O)N(CCCC)C1=S.[Na+]` [MC540], the “signal difference between normal cells and apoptotic cells” value (apoptotic cells [1]) is given as “about five fold”.
With `O=[N+]([O-])[O-].O=[N+]([O-])[O-].O=[N+]([O-])[O-].O=[N+]([O-])[O-].[Zn+2].[Zn+2].c1ccc(CN(Cc2ccccn2)Cc2c3ccccc3c(CN(Cc3ccccn3)Cc3ccccn3)c3ccccc23)nc1` [PSS-380] the “change in fluorescence intensity, POPC:POPS 50:50 vesicles” value (POPC:POPS vesicles; 50:50, PSS-380 1 μM, pH 7.2, ex 380, em 440 nm) was “ten-fold increase”, the “change in fluorescence emission, vesicles containing 5 mol % of POPS” value (POPC:POPS vesicles; POPC:POPS 95:5, PSS-380 1 μM, pH 7.2) was “four-fold rise” and the “change in fluorescence intensity, POPC:POPG vesicles” value [2] was “eleven-fold increase”. For the same molecule, the “change in fluorescence intensity, POPC:POPA vesicles” value [3] was “six-fold increase”, the “affinity with membranes composed only of zwitterionic phospholipids” value (100% POPC vesicles) was “no apparent affinity” and the “change in fluorescence after addition of zwitterionic POPC vesicles” value (100% POPC vesicles; PSS-380 1 μM, HEPES 10 mM, pH 7.2, ex 380, em 440 nm) was “not affected; also recorded: No change”. For the same molecule, the “change in fluorescence intensity with vesicle membranes containing anionic phospholipids” value [4] was “increases up to ten-fold”, the “change in fluorescence intensity with monodispersed phospholipids” value [5] was “not affected; also recorded: no change” and the “movement of 31P signals for phospholipid head groups upon addition of sensor” value [6] was “hardly move”. The “fluorescence induced by scrambled erythrocytes compared to equal number of normal erythrocytes” value (erythrocytes) was “much higher”, the “emission in presence of apoptotic Jurkat cells versus equal number of live cells” value (Jurkat cells [7]) was “twice as intense (±5%)” and the “effect of the presence of Ca^2+ on binding to apoptotic cells” value (apoptotic cells [8]) was “not noticeably inhibited”. The “speed of binding to apoptotic cells” value (apoptotic cells [8]) was “almost instantaneous”, the “staining after treatment with 10 mM EDTA” value (apoptotic cells [8]; 10 mM EDTA) was “fades rapidly” and the “staining intensity compared with annexin V” value (apoptotic cells [8]; microscopy data) was “more intense than annexin V”. For the same molecule, the “change in cell viability, judged by PI staining” value (Jurkat cells [9]) was “no change in cell viability” and the “association constant for phosphorylated compounds like phosphotyrosine” value [10] was “around 10^7 M^−1”.
In the case of `CCCCN(CCCC)c1ccc(/C=C/c2cc[n+](CCC[N+](CC)(CC)CC)cc2)cc1.[Br-].[Br-]` [FM1-43], the “signal difference between normal cells and apoptotic cells” value (apoptotic cells [1]) is listed as 6–10 fold.
With “anthracene zinc dipicolylamine [AZD, reference compound]” the “change in fluorescence intensity with vesicle membranes containing anionic phospholipids” value [4] was “hardly changed”.
For annexin V: 35 Kd PS-binding protein, the “incubation time required for complete binding” value [11] is listed as “up to one hour”, the “association constant for binding to membranes that are rich in PS” value ([11]; in the presence of sufficient calcium) is listed as “around 10^8 M^−1” and the “signal difference between normal cells and apoptotic cells” value (apoptotic cells [1]) is listed as “up to 100 fold”.
